Data from patent publication US20230027495A1, “METHODS OF TREATING CANCER WITH A COMBINATION OF AN ANTI-PD-1 ANTIBODY AND AN ANTI-TISSUE FACTOR ANTIBODY-DRUG CONJUGATE” (Genmab A/S, priority 2019, published 2023).
Entries after “also recorded” stand apart in the source; their conditions may differ. Non-standard residues stand in square brackets, D forms with d. Residues, ends and D or L forms follow the SMILES beside them. *: point of attachment. Dolaproine = CO[C@@H]([C@@H]1CCCN1)[C@@H](C)C(=O)O; Dil = CC[C@H](C)[C@H](NC)[C@@H](CC(=O)O)OC; X1 = C[C@@H](N*)[C@@H](O)c1ccccc1; NMeV = CN[C@H](C(=O)O)C(C)C

Experiments:
[1] = tested on: human peripheral blood mononuclear cells (PBMCs); test: Monocyte/macrophage activation in human PBMCs fed drug-killed MDA-MB-231 cells; format: cell-based
Source text: FIGS. 7A and 7B is a series of graphs in which Tissue Factor positive MDA-MB-231 cells killed with various agents were fed to human peripheral blood mononuclear cells (PBMCs) and immune activation assessed by increased expression of activations markers on innate CD14+ monocyte/macrophages and induction of chemokine and cytokine production.
Immunogenic cell death, as mediated by MMAE, is regulated cell death that activates adaptive immune responses against antigens from dead and dying tumor cells, and allows for the generation of robust innate immune cell activation and subsequent cytotoxic T cell responses targeted towards specific tumor cell antigens. […] Furthermore, these monocyte/macrophages conditioned by ICD-killed cells promote activation of T cells, as evidenced by production of signature inflammatory cytokines associated with cytotoxic T cell responses.

[2] = tested on: Tissue Factor positive cell lines; test: Cell death and ATP/HMGB1 release from Tissue Factor positive cell lines; format: cell-based; settings: Tissue Factor positive cells
Source text: Auristatin ADC payloads disrupt the microtubule networks resulting in altered ER localization and function, which ultimately results in ER stress.

HeLa cells [3] = test: ATP and HMGB1 secretion from MMAE-treated HeLa cells; format: cell-based; settings: 100 nM MMAE, over 24 hours, vs untreated cells
Source text: Induction of ICD is also characterized by the secretion of ATP and HMGB1. Extracellular ATP serves as a strong chemotactic signal, promoting immune cell migration to the tumor site. Upon arrival, extracellular HMGB1 signals through various pro-inflammatory receptors (TLR2, TLR4, RAGE) to activate antigen-presenting cells, thereby promoting immune activity within the tumor.

[4] = tested on: murine tumor cells that stably express human TF; test: Immunization of Balb/c mice with drug-killed human TF positive murine tumor cells, then tumor challenge (syngeneic model); format: in vivo; settings: mice immunized with drug-killed human TF positive tumor cells
Description: Mouse tumor cells are transfected with plasmid constructs encoding human tissue factor (TF) and sgRNA-guided Cas9 nuclease (sgRNA/Cas9) to generate a murine cell line that expresses the human TF. Fluorescence activated cell sorting (FACS) yields a clonal population of murine tumor cells that stably express human TF, these cells are then treated with 1 μg to 5 μg per ml of tisotumab vedotin or 100 nM of MMAE for 4 days. In order to prepare dying cells for immunization, treated murine tumor cells are overlaid atop Histopaque, and centrifuged at 2000 g for 30 minutes. Dead and dying cells are pelleted underneath the Histopaque layer, and viability assessed by trypan blue exclusion. A sample with approximately <20% live cells as measured by trypan blue exclusion is obtained. Flash-frozen tumor cells are prepared by submerging the cells in liquid nitrogen for 10 seconds, followed by immersion in 37° C. water until completely thawed. The liquid nitrogen freeze-thaw process is repeated 5 times. Dead and dying human TF positive tumor cells are resuspended in phosphate buffered saline (PBS) and 2×10^6 cells are injected into the peritoneum of immune-competent Balb/c mice. Seven days later, mice receive a second immunization with dead and dying cells prepared in the same manner.
Fourteen days after initial immunization with the dead and dying human TF positive tumor cells, mice are subcutaneously implanted with 5×10^6 wild-type tumor cells and monitored for tumor growth. […] As these effects occur in the absence of any administered therapeutic agent, the administration of cells killed by tisotumab vedotin or MMAE is sufficient to generate long-lasting protective immune memory against subsequent tumor cell challenge. Protective immune memory is amplified by treating these mice with tisotumab vedotin in combination with an antibody that binds to murine PD-1.

HeLa cells [5] = test: Imaging of RFP-tubulin microtubule network and ER in HeLa cells in the presence of MMAE; format: cell-based; settings: 100 nM MMAE
Description: HeLa cells were transduced with a baculovirus encoding RFP-labeled Tubulin (CellLight Tubulin-RFP, ThermoFisher Scientific) and an ER-binding dye (ER-ID Green, Enzo Life Sciences). Cells were treated with 100 nM MMAE and imaged over time in the present of MMAE. Within 2 hours, fragmentation and disassembly of the microtubule network became evident, concurrent with the breakdown of the perinuclear organized ER lattice (FIGS. 2A and 2B). The condensed and mislocalized ER skeleton indicated severe ER stress within 8 hours.

[6] = tested on: human peripheral blood mononuclear cells (PBMCs); test: T cell activation in CSFE labeled human PBMCs fed drug-killed MDA-MB-231 cells, with or without pembrolizumab; format: cell-based
Source text: Induction of the innate immune response following exposure to cancer cells undergoing ICD sets up secondary T cell activation, which can be enhanced by concomitant pembrolizumab treatment.

[7] = tested on: HPAFII (pancreatic carcinoma) and MDA-MB-231 (breast carcinoma) cells; test: Western blot of ER stress pathways in HPAFII and MDA-MB-231 cells; format: cell-based
Description: Induction of cell death and release of ICD danger signals occurs concomitant with initiation of an ER stress response. Two Tissue Factor positive cell lines, HPAFII (pancreatic carcinoma) and MDA-MB-231 (breast cell carcinoma) were exposed to tisotumab vedotin ADC, an Isotype-MMAE ADC (H00-MMAE, IgG1 MMAE), or free MMAE for 18 hours and induction of ER stress monitored by western blot analysis. Phosphorylation of inositol-requiring transmembrane kinase/endonuclease 1 (IRE1) was detected after treatment with tisotumab vedotin ADC or MMAE free drug (FIG. 6). […] The ability for auristatins to prime the immune system to recognize tumor antigens opens the door for a myriad of combinatorial therapeutic options.

HeLa cells [8] = test: Western blot of ER stress (IRE1 and JNK phosphorylation) in MMAE-treated HeLa cells; format: cell-based; settings: 100 nM MMAE, 16 hours
Description: HeLa cells, a cervical cancer cell line, were cultured in Minimum Essential Medium (MEM) with 10% FBS, 10 mM HEPES, 1 mM sodium pyruvate, 2 mM L-glutamine, penicillin (100U/ml), and streptomycin (100 μg/ml). HeLa cells were treated with 100 nM MMAE for 16 hours and harvested in radioimmunoprecipitation assay buffer (RIPA) buffer for western blot analysis. Treatment with MMAE led to phosphorylation of the serine threonine kinase IRE1, indicating activation of ER stress. Severe ER stress is a prerequisite to the exposure of pro-phagocytic signals on the surface of tumor cells, and can be indicated by activation of JNK signaling by phosphorylated IRE1.

MDA-MB-231 xenograft = MDA-MB-231 xenograft model in humanized NSG mice; format: in vivo; settings: pembrolizumab alone, first dose 10 mg/kg, then 5 mg/kg every five days, IP
Description: The in vivo anti-tumor efficacy of tisotumab vedotin in combination with an anti-PD-1 monoclonal antibody was evaluated in NOD.Cg-PrkdC^scid Il2rg^tm1Wj1/SzJ (NSG) immunodeficient mice (The Jackson Laboratory, Stock No. 005557), humanized by engraftment with human CD34^+ hematopoietic stem cells (Jackson Laboratories, Sacramento). Mice were subcutaneously inoculated with 5×10^6 MDA-MB-231 cells (breast adenocarcinoma; American Tissue Culture Collection (ATCC), cat. no. HTB-26), in 100 μL phosphate-buffered saline (PBS). Before inoculation, cells were cultured in DMEM with high glucose and HEPES without L-glutamine (Lonza, cat. no. BE12-709F), 10% (v/v) donor bovine serum with iron New Zealand Origin (Thermo Fisher Scientific, DBSI, cat. no. 10371-029), 2 mM L-glutamine (Lonza, cat. no. BE17-605E), 1 mM Na-pyruvate (Lonza, cat. no. BE13-115E), MEM non-essential amino acids (Life Technologies, cat. no. 11140) and 1% (v/v) penicillin/streptomycin (Lonza, cat. no. DE17-603E), in CellSTACK culture chambers (Corning, cat. no. 3313).
Tumor size was determined by caliper measurement at least two times a week and tumor volume was calculated as 0.52×length×width^2. When tumors reached the size of 100 mm^3 mice were randomized in 7 groups (8 mice per treatment group) based on mouse cohort and tumor size (Table 1). Mice were treated with tisotumab vedotin alone (1 mg/kg or 0.5 mg/kg), intravenously, weekly for a maximum of five treatments, or in combination with an anti-PD-1 antibody (i.e., pembrolizumab, KEYTRUDA®, 50 mg concentrate, Merck & Co., Inc., Kenilworth, N.J. USA) or with anti-PD-1 antibody alone. The first dose of the anti-PD-1 antibody (i.e., pembrolizumab) was 10 mg/kg, followed by 5 mg/kg every five days for a maximum of six treatments. Mice in control groups were administered 1 mg/kg of IgG1 isotype control antibody or IgG1 isotype control antibody conjugated to MMAE intravenously, weekly for a maximum of five treatments (Table 1). The IgG1 isotype control antibody is the b12 antibody which is known to bind to HIV-1 gp120. […]

cervical cancer = settings: cited from earlier work
[9] = managed with interruptions of pembrolizumab, corticosteroids and/or other supportive care; cited from earlier work
[10] = PBMCs fed drug-exposed MDA-MB-231 cells, 48 hours
[11] = HPAFII and MDA-MB-231 cells, 18 hours

Compound: CC[C@H](C)[C@@H]([C@@H](CC(=O)N1CCC[C@H]1[C@H](OC)[C@@H](C)C(=O)N[C@H](C)[C@@H](O)c1ccccc1)OC)N(C)C(=O)[C@@H](NC(=O)[C@@H](NC)C(C)C)C(C)C [MMAE, Monomethyl auristatin E, reference compound] (H-[NMeV]V[Dil][Dolaproine]-X1)
- monocyte/macrophage activation by CD86 expression ([1]; CD14+ monocyte/macrophages, flow cytometry, PBMCs fed killed MDA-MB-231 cells, compared to IgG1-MMAE ADC or tisotumab alone): drove monocyte/macrophage activations
- release of innate chemokines ([1]; PBMCs fed killed MDA-MB-231 cells, compared to IgG1-MMAE ADC or tisotumab alone): induced release of innate chemokines including MIP10
- chemotactic and inflammatory mediators from monocyte/macrophages ([1]; after uptake of killed Tissue Factor positive cells): elicit strong chemotactic and inflammatory mediators
- ATP secretion/release [2]: drove robust A) ATP secretion; also recorded: specific to tisotumab vedotin ADC and MMAE treatment
- HMGB1 release [2]: HMGB1 release; also recorded: specific to tisotumab vedotin ADC and MMAE treatment
- secretion of ATP (HeLa cells [3]): increased secretion
- secretion of HMGB1 (HeLa cells [3]): increased secretion
- survival after challenge with wild-type tumor cells [4]: increased survival
- tumor growth after challenge with wild-type tumor cells [4]: delayed tumor growth
- microtubule network and ER localization (HeLa cells [5]): led to disassembly of the microtubule network and subsequent ER mislocalization
- time to fragmentation and disassembly of the microtubule network and breakdown of the ER lattice (HeLa cells [5]): ≤ 2 h
- time to severe ER stress (condensed and mislocalized ER skeleton) (HeLa cells [5]): ≤ 8 h
- T cell proliferation (CSFE dilution) [6, 10]: drove T cell proliferation
- production of IFNγ [6, 10]: increased; also recorded: production of T cell specific cytokines
- production of IL12p70 [6, 10]: increased; also recorded: production of T cell specific cytokines
- activation of JNK (phosphorylation) [7, 11]: increased phosphorylation
- activation of PERK pathway (ATF4 cleavage) [7, 11]: upregulation of ATF4 cleavage
- phosphorylation of IRE1 [7, 11]: detected
- activation of ER stress pathways (phosphorylation of IRE and JNK, cleavage of ATF4) ([7]; HPAFII or MDA-MB-231 cells, 16 hours): trigger multiple ER stress pathways
- phosphorylation of IRE1 and JNK (ER stress) (HeLa cells [8]): led to phosphorylation of both IRE1 and JNK; also recorded: elicited severe ER stress by phosphorylation of IRE1 and JNK

Compound: pembrolizumab: anti-PD-1 monoclonal antibody, checkpoint inhibitor, also known as KEYTRUDA® [reference compound]
- tumor burden as assessed by tumor volume (MDA-MB-231 xenograft): hardly reduced tumor burden
- objective response rate (cervical cancer; 200 mg Q3W, 82 patients with previously treated, advanced cervical cancer): 12%
- objective response rate (ORR) (cervical cancer; 2L+ PD-L1-positive recurrent or metastatic cervical cancer, 42% previously treated with bevacizumab): 14%
- T cell proliferation driven by tisotumab vedotin or MMAE killed cells, effect of added pembrolizumab ([6]; 2 mg/ml of pembrolizumab, 48 hours): enhanced
- cytokine production after tisotumab vedotin or MMAE killed cells, effect of concomitant pembrolizumab ([6]; IL12p70 and IFNγ, 48 hours): increased
- secondary T cell responses after tisotumab vedotin induced ICD, effect of pembrolizumab ([6]; concomitant pembrolizumab treatment): can be amplified
- reversibility of immune-related AEs (irAEs) [9]: most irAEs were reversible
